Results as given in the supplement of paper PMC10307832.

Assays:
Assay in all cases: relative viability (nuclei count vs DMSO), 5 days (fraction); higher = more cells survive
RERF-LC-KJ = tested on: RERF-LC-KJ
Outline: (§1)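 Values are medians from duplicate plates. Each reflects relative viability, defined as the nuclei count of treated wells over that of vehicle wells. Lung cancer cell lines in 1536-well plates were pin-tool dosed one day after seeding with one drug alone or with a fixed anchor-drug dose plus five library-drug doses (not always all listed) in √10 steps, then fixed, stained and imaged at 4× after 5 days.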

NCI-H2126 = tested on: NCI-H2126
Outline: as §1

NCI-H1666 = tested on: NCI-H1666
Outline: as §1

COR-L 105 = tested on: COR-L 105
Outline: as §1

NCI-H520 = tested on: NCI-H520
Outline: as §1

NCI-H522 = tested on: NCI-H522
Outline: as §1

NCI-H661 = tested on: NCI-H661
Outline: as §1

ChaGo-K-1 = tested on: ChaGo-K-1
Outline: as §1

NCI-H23 = tested on: NCI-H23
Outline: as §1

NCI-H650 = tested on: NCI-H650
Outline: as §1

NCI-H647 = tested on: NCI-H647
Outline: as §1

NCI-H2347 = tested on: NCI-H2347
Outline: as §1

NCI-H1915 = tested on: NCI-H1915
Outline: as §1

PC-14 = tested on: PC-14
Outline: as §1

LC-2-ad = tested on: LC-2-ad
Outline: as §1

HCC-78 = tested on: HCC-78
Outline: as §1

201T = tested on: 201T
Outline: as §1

EPLC-272H = tested on: EPLC-272H
Outline: as §1

LCLC-97TM1 = tested on: LCLC-97TM1
Outline: as §1

NCI-H2405 = tested on: NCI-H2405
Outline: as §1

HCC-827 = tested on: HCC-827
Outline: as §1

NCI-H2087 = tested on: NCI-H2087
Outline: as §1

NCI-H322M = tested on: NCI-H322M
Outline: as §1

H3255 = tested on: H3255
Outline: as §1

CC(C)Oc1cc(Nc2nc(N[C@@H](C)c3ccc(F)cn3)ncc2Cl)n[nH]1 [AZ23] + Nc1nc2[nH]cc(CCc3ccc(C(=O)N[C@@H](CCC(=O)O)C(=O)O)cc3)c2c(=O)[nH]1 [Pemetrexed] (partner 0.2 µM)
relative viability (RERF-LC-KJ; first compound 0.01 µM): 0.493
relative viability (RERF-LC-KJ; first compound 0.03162 µM): 0.463
relative viability (RERF-LC-KJ; first compound 0.3162 µM): 0.495
relative viability (NCI-H2126; first compound 0.01 µM): 0.62
relative viability (NCI-H2126; first compound 0.03162 µM): 0.695
relative viability (NCI-H2126; first compound 0.3162 µM): 0.679
relative viability (NCI-H1666; first compound 0.01 µM): 0.822
relative viability (NCI-H1666; first compound 0.03162 µM): 0.837
relative viability (NCI-H1666; first compound 0.3162 µM): 0.771
relative viability (COR-L 105; first compound 0.01 µM): 0.902
relative viability (COR-L 105; first compound 0.03162 µM): 1.24
relative viability (COR-L 105; first compound 0.3162 µM): 1.1
relative viability (NCI-H520; first compound 0.01 µM): 0.678
relative viability (NCI-H520; first compound 0.03162 µM): 0.759
relative viability (NCI-H520; first compound 0.3162 µM): 0.615
relative viability (NCI-H522; first compound 0.01 µM): 1
relative viability (NCI-H522; first compound 0.03162 µM): 1
relative viability (NCI-H522; first compound 0.3162 µM): 1.11
relative viability (NCI-H661; first compound 0.01 µM): 0.864
relative viability (NCI-H661; first compound 0.03162 µM): 0.925
relative viability (NCI-H661; first compound 0.3162 µM): 0.927
relative viability (ChaGo-K-1; first compound 0.01 µM): 0.24
relative viability (ChaGo-K-1; first compound 0.03162 µM): 0.256
relative viability (ChaGo-K-1; first compound 0.3162 µM): 0.269
relative viability (NCI-H23; first compound 0.03162 µM): 0.77
relative viability (NCI-H23; first compound 0.3162 µM): 0.992
relative viability (NCI-H650; first compound 0.01 µM): 0.936
relative viability (NCI-H650; first compound 0.03162 µM): 0.969
relative viability (NCI-H650; first compound 0.3162 µM): 0.888
relative viability (NCI-H647; first compound 0.01 µM): 0.151
relative viability (NCI-H647; first compound 0.03162 µM): 0.192
relative viability (NCI-H647; first compound 0.3162 µM): 0.182
relative viability (NCI-H2347; first compound 0.01 µM): 0.379
relative viability (NCI-H2347; first compound 0.03162 µM): 0.412
relative viability (NCI-H2347; first compound 0.3162 µM): 0.459
relative viability (NCI-H1915; first compound 0.01 µM): 0.463
relative viability (NCI-H1915; first compound 0.03162 µM): 0.485
relative viability (NCI-H1915; first compound 0.3162 µM): 0.607
relative viability (PC-14; first compound 0.01 µM): 0.127
relative viability (PC-14; first compound 0.03162 µM): 0.136
relative viability (PC-14; first compound 0.3162 µM): 0.147
relative viability (LC-2-ad; first compound 0.01 µM): 0.275
relative viability (LC-2-ad; first compound 0.03162 µM): 0.279
relative viability (LC-2-ad; first compound 0.3162 µM): 0.297
relative viability (HCC-78; first compound 0.01 µM): 0.976
relative viability (HCC-78; first compound 0.03162 µM): 0.902
relative viability (HCC-78; first compound 0.3162 µM): 0.938
relative viability (201T; first compound 0.01 µM): 0.251
relative viability (201T; first compound 0.03162 µM): 0.348
relative viability (201T; first compound 0.3162 µM): 0.336
relative viability (EPLC-272H; first compound 0.03162 µM): 0.322
relative viability (EPLC-272H; first compound 0.3162 µM): 0.302
relative viability (LCLC-97TM1; first compound 0.01 µM): 0.138
relative viability (LCLC-97TM1; first compound 0.03162 µM): 0.193
relative viability (LCLC-97TM1; first compound 0.3162 µM): 0.166
relative viability (NCI-H2405; first compound 0.01 µM): 1.02
relative viability (NCI-H2405; first compound 0.03162 µM): 1.04
relative viability (NCI-H2405; first compound 0.3162 µM): 0.879
relative viability (HCC-827; first compound 0.01 µM): 0.2
relative viability (HCC-827; first compound 0.03162 µM): 0.27
relative viability (HCC-827; first compound 0.3162 µM): 0.242
relative viability (NCI-H2087; first compound 0.01 µM): 0.727
relative viability (NCI-H2087; first compound 0.03162 µM): 0.691
relative viability (NCI-H2087; first compound 0.3162 µM): 0.766
relative viability (NCI-H322M; first compound 0.01 µM): 0.536
relative viability (NCI-H322M; first compound 0.03162 µM): 0.617
relative viability (NCI-H322M; first compound 0.3162 µM): 0.689
relative viability (H3255; first compound 0.01 µM): 0.536
relative viability (H3255; first compound 0.03162 µM): 0.603
relative viability (H3255; first compound 0.3162 µM): 0.577
